Measurements published in patent US20210128500A1, “Methods of Treating Conditions Associated with Leaky Gut Barrier” (The Regents of the University of California, priority 2017, published 2021).
Entries after “also recorded” stand apart in the source; their conditions may differ.

Key:
[1] = tested on: Mouse intestine-derived EDMs; test: Tight junction integrity by occludin / pS245GIV staining in EDMs exposed to LPS or H2O2 (FIG. 5); type: cell-based; settings: 1 μM Metformin
Description: Mouse intestine-derived EDMs were exposed to indicated amounts of LPS (top) or H2O2 (bottom) after treating them or not with 1 μM Metformin. Fixed monolayers were assessed for TJs by staining for occludin (a TJ marker; green grey scales). Activation of the AMPK→GIV stress polarity axis was monitored using pS245GIV (red grey scales). […] TEER measurements agree with IF findings (not shown).

AMPK→pS245GIV axis = test: Activity of the AMPK→pS245GIV axis in human EDMs from non-diseased aged colons; type: cell-based
high-fat fed mice = settings: cited from earlier work
CLDN2 = CLDN2 biomarker in response to IBD-associated microbes (FIG. 15); type: cell-based
[2] = tested on: enteroid-derived monolayers (EDMs); test: TEER across enteroid-derived monolayers challenged with E. coli K12 (FIG. 4B); type: cell-based, mouse and human; settings: Metformin pre-treatment 1 μM, 18 h; E. coli K12 challenge 8 h
Description: (§1) In FIG. 4B, TEER was measured across EDMs that were pre-treated or not with Metformin (1 μM, 18 h) prior to challenge with E. coli K12 strain for 8 h. Drop in TEER (Y axis) is plotted. A representative experiment is shown. […] Activation of the AMPK→GIV stress polarity axis was monitored using pS245GIV (red). […] Arrowheads=separation of TJs and loss of pS245GIV.
(§2) Detailed Methods: Isolation of enteroids and generation of enteroid-derived monolayers (EDM): Crypts are isolated from human colonic biopsies by digesting tissue with Collagenase type I (2 mg/ml; Invitrogen), filtered with a cell strainer and washed with medium (DMEM/F12 with HEPES, 10% FBS), as outlined before. The epithelial units are suspended in […] (BD basement membrane matrix). Cell-[…] suspension (15 μl) are placed at the center of the 24-well plate on ice and placed on the incubator upside-down for polymerization (as shown in FIG. 4A). After 10 min, 500 μl of 50% conditioned media (prepared from L-WRN cells with Wnt3a, R-spondin and Noggin) containing 10 μM Y27632 (ROCK inhibitor) and 10 μM SB431542 (an inhibitor for TGF-β type I receptor) is added to the suspension. The medium is changed every 2 days and the enteroids are expanded and frozen in liquid nitrogen. To prepare EDMs, single cells from enteroids in 5% conditioned media are added to diluted […] (1:30) as done before. […]

[3] = tested on: enteroid-derived monolayers (EDMs); test: Tight junction integrity by occludin / pS245GIV staining in EDMs challenged with E. coli (FIG. 4C); type: cell-based, mouse and human; settings: Metformin pre-treatment 1 μM, 18 h; E. coli K12 8 h
Description: as §1, §2

DSS-induced colitis = DSS-induced colitis (FIGS. 20A-20E); type: in vivo; settings: activation of AMPK with A769662
[4] = tested on: AMPK 32-subunit-containing isoforms; test: AMPK activation by A769662, 32-subunit-containing isoforms (FIG. 18); type: biochemical
AMPK α1β1γ1 = AMPK α1β1γ1 (Homo sapiens, UniProt Q13131+Q9Y478); test: AMPK activation by A769662, α1β1γ1 isoform (fold activation, FIG. 18); type: biochemical; settings: estimated
Chain of AMPK α1β1γ1 (Q13131 whole entry, canonical isoform): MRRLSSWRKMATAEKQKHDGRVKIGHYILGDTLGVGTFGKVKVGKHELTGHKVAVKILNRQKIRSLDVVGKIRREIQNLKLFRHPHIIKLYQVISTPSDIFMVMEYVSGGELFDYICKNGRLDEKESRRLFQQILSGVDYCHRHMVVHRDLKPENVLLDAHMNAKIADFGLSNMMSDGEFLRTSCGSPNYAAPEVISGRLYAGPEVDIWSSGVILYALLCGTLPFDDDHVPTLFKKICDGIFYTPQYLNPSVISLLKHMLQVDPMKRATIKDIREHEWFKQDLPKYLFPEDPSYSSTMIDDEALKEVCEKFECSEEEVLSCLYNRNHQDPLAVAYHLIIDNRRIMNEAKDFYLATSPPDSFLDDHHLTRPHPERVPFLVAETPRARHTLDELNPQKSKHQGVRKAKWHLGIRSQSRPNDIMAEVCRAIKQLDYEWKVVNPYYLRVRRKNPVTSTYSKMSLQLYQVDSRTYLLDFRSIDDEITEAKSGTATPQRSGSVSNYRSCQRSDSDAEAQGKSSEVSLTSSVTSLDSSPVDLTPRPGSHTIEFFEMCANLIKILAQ
Chain of AMPK α1β1γ1 (Q9Y478 whole entry, canonical isoform): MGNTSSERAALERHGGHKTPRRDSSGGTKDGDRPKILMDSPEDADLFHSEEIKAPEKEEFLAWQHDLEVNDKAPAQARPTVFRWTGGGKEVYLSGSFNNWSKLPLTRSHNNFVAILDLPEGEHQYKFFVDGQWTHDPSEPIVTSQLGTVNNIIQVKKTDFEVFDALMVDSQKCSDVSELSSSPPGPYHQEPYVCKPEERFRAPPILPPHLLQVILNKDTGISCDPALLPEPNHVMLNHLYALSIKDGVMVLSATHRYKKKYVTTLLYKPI
Chain of AMPK α1β1γ1 (P54619 whole entry partner, canonical isoform): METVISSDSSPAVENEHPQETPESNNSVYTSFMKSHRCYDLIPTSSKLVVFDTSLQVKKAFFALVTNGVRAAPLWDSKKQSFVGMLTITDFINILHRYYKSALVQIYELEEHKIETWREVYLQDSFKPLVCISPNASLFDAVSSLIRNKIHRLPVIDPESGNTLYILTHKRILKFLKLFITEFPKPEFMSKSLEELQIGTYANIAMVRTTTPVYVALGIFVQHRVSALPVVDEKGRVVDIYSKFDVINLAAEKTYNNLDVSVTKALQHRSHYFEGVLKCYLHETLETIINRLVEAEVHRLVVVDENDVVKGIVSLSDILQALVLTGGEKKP

| AC50 (AMPK α1β1γ1) | SMILES | TJ preservation (occludin pattern) ([1]; H2O2 stress) | TJ preservation (occludin pattern) ([1]; LPS stress) | activity of the AMPK→pS245GIV axis (AMPK→pS245GIV axis) | endotoxemia (high-fat fed mice) | gut barrier integrity (high-fat fed mice) | insulin signaling (high-fat fed mice) | increase in the CLDN2 biomarker (CLDN2) | Drop in TEER [2] | TJ preservation (occludin pattern) [3] | colon length (DSS-induced colitis) | healing of colonic mucosa (DSS-induced colitis) | AC50 [4] |
| --- | --- | --- | --- | --- | --- | --- | --- | --- | --- | --- | --- | --- | --- |
|  | CN(C)C(=N)N=C(N)N [Metformin] | TJs were better preserved; also recorded: protects TJs against stress-induced collapse | TJs were better preserved; also recorded: protects TJs against stress-induced collapse | can be increased | attenuates endotoxemia | enhances gut barrier integrity | enhances insulin signaling | prevents the increase | significantly reduced the drop in TEER | TJs were better preserved; also recorded: protects TJs against stress-induced collapse |  |  |  |
| 72.2 nM | N#Cc1c(O)c2c(-c3ccc(-c4ccccc4O)cc3)csc2[nH]c1=O [A769662] |  |  |  |  |  |  |  |  |  | preserves colon length | heals colonic mucosa | > 40000 nM |
